2 compounds from patent publication US10064797B2, “Topical formulations for UV protection” (TOPGENIX, INC., priority 2014, dated 2018) can be followed below.

The nature of data set [1]: Photostability: UV absorption spectra before and after UV exposure. It is filed as physicochemical. As to conditions: before vs after UV exposure; 290 nm to 400 nm; FIGS. 2 and 4. As for the experimental part: (§1) In both cases, the absorptivity of these two compounds were studied. In addition, photostability of these two compounds were also assessed by taking a second UV absorption spectra after exposing the compounds to UV. Photostability of sun screening compounds are of critical importance as a compound would be completely ineffective if they lose their UV absorptive qualities shortly after being exposed to solar radiation.
Turning to FIG. 2, this set of spectra show the effects of UV exposure on 3-hydroxy-2-methoxy-cyclo-2-enone, avobenzone, and combinations thereof over a wavelength range of 290 nm and 400 nm. A first spectrum 210 and a second spectrum 212 are for avobenzone before and after UV exposure. A third spectrum 220 and a fourth spectrum 222 are for 3-hydroxy-2-methoxy-cyclo-2-enone before and after UV exposure, respectively. A fifth spectrum 230 and a sixth spectrum 232 correspond to a combination of 3-hydroxy-2-methoxy-cyclo-2-enone and avobenzone at a ratio of 1:2 before and after UV exposure, respectively. Finally, a seventh spectrum 240 and an eighth spectrum 242 correspond to a combination of 3-hydroxy-2-methoxy-cyclo-2-enone and avobenzone at a ratio of 2:1 before and after UV exposure, respectively.
A first spectrum 410 and a second spectrum 412 are for avobenzone before and after UV exposure. […]

A short description of data set [2]: UV absorption spectra of the compounds, avobenzone and their combinations. Type of data set: physicochemical. As to conditions: for UV absorption: 320 nm and 400 nm, each compound alone. The method, then:
as §1
Avobenzone is an example for a known chemical UV absorber that can be combined.

For `COc1ccc(C(=O)CC(=O)c2ccc(C(C)(C)C)cc2)cc1` [avobenzone, reference compound], the “change of UV absorption after UV exposure (photostability)” value in data set [1] is reported as “dropped overall”. For the same compound, the UV absorption entry in data set [2] (FIG. 1) is listed as “relatively low”.

Take 3-Hydroxy-2-methoxy-cyclo-2-enone: the “change of UV absorption after UV exposure (photostability)” value in data set [1] is listed as “dropped overall”. The UV absorption result in data set [2] (FIG. 1) was “relatively low”. Also, in data set [2] (at 320 nm, FIG. 1), the “absorbance at 320 nm relative to strongest absorbance” value was “drops off by approximately half”. For the same compound, the “wavelength of strongest (maximum) UV absorption” value in data set [2] (compound alone) was “around 262 nm”.
